We go through one molecule from publication PMC3507690, “A Single Glycine-Alanine Exchange Directs Ligand Specificity of the Elephant Progestin Receptor” (PLoS ONE, 2012).

This test addresses T1, hPR LBD (initial construct) (Homo sapiens, UniProt P06401).
T1 construct: gene PGR; pET3d, E. coli BL21 lysate; cloned from HOSE cell cDNA
T1 sequence (P06401 634-933): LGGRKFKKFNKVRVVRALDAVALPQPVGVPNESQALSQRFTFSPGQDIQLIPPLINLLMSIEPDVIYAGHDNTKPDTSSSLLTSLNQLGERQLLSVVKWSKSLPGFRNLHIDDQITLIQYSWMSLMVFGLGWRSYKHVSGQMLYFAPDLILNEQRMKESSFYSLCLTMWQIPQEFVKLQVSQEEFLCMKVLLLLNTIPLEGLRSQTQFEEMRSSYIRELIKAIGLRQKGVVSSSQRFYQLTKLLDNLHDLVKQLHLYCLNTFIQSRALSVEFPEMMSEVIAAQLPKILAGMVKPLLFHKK
Description: competitive radioligand binding, charcoal separation, bacterial lysate. The following applies: 1 nM [3H]-progesterone, 16 h, 4 °C; relative binding affinity compared to progesterone.

Turning to `CC(=O)[C@H]1CC[C@H]2[C@@H]3CC[C@H]4CC(=O)CC[C@]4(C)[C@H]3CC[C@]12C` [DHP, 5α-dihydroprogesterone], the RBA entry is reported as “relative binding affinity (RBA) of DHP compared to progesterone measured by competitive binding assays”.
